{"source": "patent US7939541B2", "about": "“Intermediates and a process employing the intermediates for the preparation of (3-trifluoromethylsulfonyl)-N-[4-methyl-3-(4-pyridin-3yl-pyrimidin-2ylamino)-phenyl]-benzamide” (Natco Pharma Limited, priority 2004, dated 2011)", "key": {"[1]": {"system": "Baf3 murine leukemia cells T315I", "assay": "Blast cell count in nude mice implanted with Baf3 T315I cells", "format": "in vivo", "conditions": "Baf3T315I; Imatinib 10 mg/kg, AN019 20 mg/kg, AN024 20 mg/kg, oral gavage or ip from day 15; day 42", "excerpt": "(§1) Blood smears were obtained via the tail vein or via the femoral vein every 6th day and blast cells counted and graphically represented.\n(§2) Abdominal swelling and decrease in activity was monitored daily, blood smear taken via the tail vein or the femoral vein every 6th day and H&E stained as per standard protocols. 42 days after implantation, mice were sacrificed and spleens harvested.\n(§3) Blood from tail vein or the femoral vein was taken every 6th day from Baf3 cell implanted mice until day 42.\n(§4) Nude mice were intraperitoneally implanted with Baf3 mutant cells (wt, T315I, M351T or E255K). […] Blood was drawn from the femoral vein or tail vein every 6th day and blast cell count determined and graphically represented."}, "[2]": {"system": "Baf3 murine leukemia cells E255K", "assay": "Blast cell count in nude mice implanted with Baf3 E255K cells", "format": "in vivo", "conditions": "Baf3E255K (printed E225K); Imatinib 10 mg/kg, AN019 20 mg/kg, AN024 20 mg/kg, oral gavage or ip from day 15; day 42", "excerpt": "as §1, §2, §3, §4"}, "[3]": {"system": "K562 luciferase expressing cells", "assay": "Leukemic survival study", "format": "in vivo, nude mice", "excerpt": "K562 luciferase expressing cells were implanted intraperitoneally into nude mice; the mice were scanned using the xenogeny IVIS image station after ip injections of luciferin does determine implantations. Drug treatment was started as in previous studies day 15 after implantation. The animals were given treatment till day 42, after which drug treatment was stopped and survival of the animals determined as per the animal care regulations. […] Drug treatment was withdrawn on day 42 post implantation and survival of animals determined."}, "[4]": {"system": "AKT, ERK and Pi3k in ZR71 breast cancer cells", "assay": "Western blot analysis, ZR71", "format": "cell-based", "conditions": "24 h", "procedure": "(§5) Western blot analysis of 4910, 5310 and U87 glioma cells and MDAMB231 and ZR71 breast cancer cells in the presence of specified concentrations of compounds were assessed as per standard protocols. Cells were treated with AN019, AN024 or Temozolomide at the specified concentrations. 24 h after treatment, cells were collected and cell lysates extracted. Equal quantities of proteins were fractionated by SDS-PAGE. The fractionated proteins were blotted on to nylon membranes and immunoprobed for AKT, ERK and Pi3k. Breast cancer cell protein isolates were additionally immunoprobed for EGFR, ErbB1, ErbB2 and ErbB3."}, "K562luc cells": {"system": "K562luc cells", "assay": "Determination of drug temporal penetrance (Tp)", "format": "in vivo, nude mice", "conditions": "daily ip from day 15 to day 35, imaged till day 45; AN019 20 mg/kg, AN024 20 mg/kg, Imatinib 10 mg/kg", "procedure": "The temporal penetrance was calculated applying the following equation, […].\nP=photon counts at day ‘a’, day ‘ter’, or day ‘b’ where ‘a’ is the day when drug treatment was stopped and ‘ter’ is the day when the experiment was terminated and ‘b’ is the day where P is minimum after day a but before day ‘ter’.\nn=number of animals alive when P was measured.\nThe animals were imaged at 6 day intervals post transplantation. […] Drug treatment was stopped on day 35 and animals were imaged till day 45, and calculated as described in methods."}, "[5]": {"system": "Baf3 murine leukemia cells M351T", "assay": "Blast cell count in nude mice implanted with Baf3 M351T cells", "format": "in vivo", "conditions": "Baf3M351T; Imatinib 10 mg/kg, AN019 20 mg/kg, AN024 20 mg/kg, oral gavage or ip from day 15; day 42", "excerpt": "as §1, §2, §3, §4"}, "ZR71 breast cancer cells": {"system": "ZR71 breast cancer cells", "assay": "In vitro angiogenic assay, ZR-71 conditioned media on human dermal endothelial cells", "format": "cell-based", "conditions": "ZR-71 cells, radiation status not specified", "procedure": "(§6) The in vitro angiogenesis of 4910, 5310 and U87 glioma cells and MDAMB231 and ZR71 breast cancer cells in the presence of specified concentrations of compounds were determined as follows, cells (2×10^4/well) were seeded in 8-well chamber slides and were treated with various concentrations of test compounds. After a 24 h incubation period, the conditioned media was removed and added to a 4×10^4 human dermal endothelial cell (monolayer in 8-well chamber slides) and the human dermal endothelial cells were allowed to grow for 72 h. Cells were then fixed in 3.7% formaldehyde and stained with H&E and photographed."}, "4910 glioma cells": {"system": "4910 glioma cells", "assay": "In vitro angiogenic assay, 4910 conditioned media on human dermal endothelial cells", "format": "cell-based", "conditions": "4910 cells", "procedure": "as §6"}, "[6]": {"system": "4910 human glioma xenograft cells", "assay": "Glioma radiation studies, intracranial tumours", "format": "in vivo, nude mice", "procedure": "Nude mice were intracranially implanted with 4910 human glioma xenograft cells (1×10^6 cells) intracranially. Ten days after implantation mice were treated with AN019, AN024 or temozolomide with or without radiation (5 Gy/week). The experiment was terminated at day 40 post implantation."}, "K562": {"system": "K562", "assay": "ED50 and therapeutic index in leukemic mice (K562)", "format": "in vivo", "conditions": "po, mice"}, "[7]": {"system": "pAKT and pERK in glioma and breast cancer cells", "assay": "Western blot analysis of pAKT and pERK, cell line not stated", "format": "cell-based", "conditions": "for pERK levels: both with and without radiation", "procedure": "as §5"}, "[8]": {"system": "Baf3 murine leukemia cells Wt", "assay": "Blast cell count in nude mice implanted with Baf3 Wt cells", "format": "in vivo", "conditions": "Baf3Wt; Imatinib 10 mg/kg, AN019 20 mg/kg, AN024 20 mg/kg, oral gavage or ip from day 15; day 42", "excerpt": "as §1, §2, §3, §4"}, "[9]": {"system": "MDAMB231 breast cancer cells", "assay": "In vitro angiogenic assay, MDA-MB-231 conditioned media on human dermal endothelial cells", "format": "cell-based", "conditions": "MDA-MB-231 cells", "procedure": "as §6"}, "[10]": {"system": "AKT, ERK and Pi3k in 5310 glioma cells", "assay": "Western blot analysis, 5310", "format": "cell-based", "conditions": "for PI3k levels: 24 h", "procedure": "as §5"}, "5310 glioma cells": {"system": "5310 glioma cells", "assay": "In vitro angiogenic assay, 5310 conditioned media on human dermal endothelial cells", "format": "cell-based", "conditions": "5310 cells", "procedure": "as §6"}}}
{"smiles": "Cc1ccc(NC(=O)c2cc(C(F)(F)F)cc(C(F)(F)F)c2)cc1Nc1nccc(-c2cccnc2)n1", "note": "[AN019]", "values": [{"measurement": "blast cell count in blood smears", "setting": "[1]", "result": "significant decrease in blast cell count"}, {"measurement": "blast cell count in blood smears", "setting": "[2]", "result": "significant decrease in blast cell count"}, {"measurement": "blast cell count from blood smears after withdrawal of drug treatment", "setting": "[3]; drug treatment withdrawn on day 42 (FIG. 6C)", "result": "showed effectiveness after withdrawal of drug treatment"}, {"measurement": "animals showing no signs of leukemia / complete absence of leukemic symptoms", "setting": "[3]; of 10 animals, treatment day 15 to day 42, then withdrawn, AN024 read on day 55", "result": 7, "unit": "animals"}, {"measurement": "mortality (day post implantation)", "setting": "[3]; treatment day 15 to day 42, then withdrawn", "result": "did not show any mortality"}, {"measurement": "AKT levels", "setting": "[4]; ZR71, after radiation", "result": "enhanced after radiation"}, {"measurement": "PI3k levels", "setting": "[4]; ZR71, with radiation", "result": "absent"}, {"measurement": "AKT levels", "setting": "[4]; ZR71, without radiation", "result": "decrease in AKT levels"}, {"measurement": "PI3k levels", "setting": "[4]; ZR71, without radiation", "result": "absent"}, {"measurement": "temporal penetrance (Tp)", "setting": "K562luc cells", "result": 2.0}, {"measurement": "blast cell count in blood smears", "setting": "[5]", "result": "significant decrease in blast cell count"}, {"measurement": "MTD Mice", "setting": "Maximum Tolerated Dose", "result": 500, "unit": "mg/kg"}, {"measurement": "LD50 (po) Mice", "setting": "po", "result": 1133, "unit": "mg/kg"}, {"measurement": "inhibition of angiogenesis", "setting": "ZR71 breast cancer cells", "result": "complete inhibition of angiogenesis"}, {"measurement": "inhibition of angiogenesis", "setting": "4910 glioma cells; with radiation", "result": "increase in angiogenic inhibition after radiation"}, {"measurement": "intracranial tumours (size, appearance)", "setting": "[6]; without radiation", "result": "tumours similar to AN024 treated animals"}, {"measurement": "ED50 (po) Mice", "setting": "K562", "result": 11.5, "unit": "mg/kg"}, {"measurement": "pERK levels", "setting": "[7]", "result": "reduced significantly"}, {"measurement": "blast cell count in blood smears", "setting": "[8]", "result": "complete regression of leukemic blast cells"}, {"measurement": "inhibition of angiogenesis", "setting": "[9]; with radiation", "result": "slight inhibition"}, {"measurement": "AKT expression levels", "setting": "[10]; 5310, 24 h", "result": "decrease in AKT expression levels"}, {"measurement": "PI3k levels", "setting": "[10]; 5310, after radiation treatment", "result": "reappeared after radiation treatment"}, {"measurement": "PI3k levels", "setting": "[10]; 5310, without radiation", "result": "almost undetectable"}]}
{"smiles": "Cn1nnc2c(C(N)=O)ncn2c1=O", "note": "[Temozolomide, reference compound]", "values": [{"measurement": "inhibition of angiogenesis", "setting": "ZR71 breast cancer cells", "result": "complete inhibition of angiogenesis"}, {"measurement": "inhibition of angiogenesis", "setting": "4910 glioma cells; with radiation", "result": "significant inhibition of angiogenesis"}, {"measurement": "inhibition of angiogenesis", "setting": "4910 glioma cells; without radiation", "result": "significant inhibition of angiogenesis"}, {"measurement": "intracranial tumours (size, appearance)", "setting": "[6]; with radiation (5 Gy/week)", "result": "further regression in tumor size"}, {"measurement": "intracranial tumours (size, appearance)", "setting": "[6]; without radiation", "result": "reduction in intracranial tumours"}, {"measurement": "inhibition of angiogenesis", "setting": "5310 glioma cells; after radiation treatment", "result": "angiogenesis was promoted"}, {"measurement": "inhibition of angiogenesis", "setting": "5310 glioma cells; control conditions (without radiation)", "result": "inhibition of angiogenesis was seen"}, {"measurement": "pERK levels", "setting": "[7]", "result": "did not show any significant change"}, {"measurement": "pAKT levels", "setting": "[7]; with or without radiation", "result": "did not show any significant change"}, {"measurement": "inhibition of angiogenesis", "setting": "[9]; control condition (without radiation)", "result": "only a slight inhibition"}, {"measurement": "inhibition of angiogenesis", "setting": "[9]; with radiation", "result": "increase in inhibition after radiation"}]}
